Experimental data published in PMC6337126, “Thiophene Derivatives as Anticancer Agents and Their Delivery to Tumor Cells Using Albumin Nanoparticles” (Molecules, 2019).
Converted amounts (≈) assume the structure as drawn. “And” between values parts separate entries of the source, which are not always exact repeats. Identical values can stand only once. Like-named read-outs stand apart in the source and are kept apart here. Values belong to the molecule of their own block, whether it stands above or below them.

Assays:
[1] = tested on: HepG2; experiment: MTT screening assay of TPs; assay type: cell-based
Description: (§1) HepG2 and SMMC-7721 cell lines were cultured and grown in complete DMEM containing 10% FBS and 1% streptomycin and penicillin in 5% CO2 at 37 °C. TPs were fabricated using the method as described previously. The cytotoxicity of TPs in HepG2 and SMMC-7721 cell in vitro was evaluated by MTT assay. Firstly, cells with a density of 8 × 10^4 cells per wells were placed and cultured in 96-well plates and incubated 24 h at 37 °C. Then, 100 μL of TPs DMEM solution (30 μg/mL) was added into each well. After incubated 24 h, 10 μL of MTT solution (5.0 mg/mL) was added and incubated 4 h. Finally, the medium was removed, 100 μL of DMSO was added and OD values were tested using microplate reader (Synergy4, multi-mode microplate reader, BioTek, Winooski, VT, USA) at 490 nm when the formazan precipitate was completely dissolved. It is worth noting that wells containing normal medium without TPs were regarded as controls. In addition, wells which add the medium with paclitaxel were regarded as a positive control.

[2] = tested on: SMMC-7721; experiment: MTT screening assay of TPs; assay type: cell-based
Description: as §1

[3] = Solubility of TP 5 in solvents by HPLC; assay type: physicochemical
Description: (§2) In order to investigate the solubility and stability of TP 5, a certain amount of TP 5 was dissolved in several solvents (deionized water, PBS buffered solution pH 7.4, ethanol, ethyl acetate, and dichloromethane) and make it saturate. The solubility was measured by HPLC. In addition, for the stability of TP 5, 200.0 μg/mL of TP 5 was placed in different temperature (25.0, 40.0 and 60.0) and the concentration was detected and compared with practical concentration.

[4] = Stability of TP 5 at different temperatures by HPLC; assay type: physicochemical; details: for Detected Concentration: calculated concentration 200.0 μg/mL, single replicates
Description: as §2

[5] = In vitro drug release by dialysis method; assay type: physicochemical; details: over 120 h, PBS containing 20.0% ethanol, 37 °C
Description: The detailed process was as follows: first, TP 5 and TP 5-NPs were all dissolved or dispersed in 1.0 mL PBS (pH 7.4), respectively. Then, they were placed in a dialysis bag (the molecule weight cutoff was 12.0 kD). After that, they were placed in 50.0 mL release medium PBS containing 20.0% v/v ethanol and maintained at 37 °C with continuous stirring at 150 rpm. Sink conditions were maintained. At predetermined time intervals, 1.0 mL release medium was withdrawn and replaced with 1.0 mL 37 °C fresh release medium. Finally, the released capacity of TP 5 was detected by HPLC.

[6] = tested on: HepG2; experiment: Cytotoxicity of TP 5-NPs in vitro (MTT); assay type: cell-based
Description: (§3) The cytotoxicity of TP 5-NPs in two cell lines in vitro was assessed. Briefly, cells with a density of 8 × 10^4 cells per wells were placed and cultured in 96-well plates. After incubated 24 h at 37 °C, 100 μL of medium containing different concentrations of TP 5-NPs or TP 5 (10.0, 20.0, 30.0, 40.0 and 50.0 μg/mL) was added to each well and cultured another 24, 48 or 72 h at 37 °C (wells containing the normal medium without formulation were regarded as controls). After that, 10.0 μL of MTT (5.0 mg/mL) was added into each well and incubated for 4.0 h. Finally, the medium was removed and 100.0 μL of DMSO was added. OD values were tested by microplate reader at 490 nm when the formazan precipitate was completely dissolved.

[7] = tested on: SMMC-7721; experiment: Cytotoxicity of TP 5-NPs in vitro (MTT); assay type: cell-based
Description: as §3

[8] = tested on: HepG2; experiment: Mitochondrial transmembrane potential assay (JC-1); assay type: cell-based; details: HepG2, 30.0 μg/mL, 12 h
Description: (§4) In general, cell apoptosis is often accompanied by the transformation of mitochondrial transmembrane potential (ΔΨm). […] In order to verify whether TP 5-NPs can induce cancer cell apoptosis, ΔΨm was measured. Firstly, HepG2 and SMMC-7721 cell with a density of 2 × 10^5 cells per wells in 1.0 mL of medium all were seeded in a 12-well plate and incubated for 24 h. After that, 30.0 μg/mL of TP 5-NPs or TP 5 was added and cultured for another 12 h, in which wells containing normal medium without drugs were regarded as controls. Cells were washed using PBS for three times, incubated for 10 min in 10.0 μg/mL of JC-1 dye in the dark. The level of mitochondrial depolarization was observed by inverted fluorescent microscope and quantitatively analyzed by imaging software Image J [26].

[9] = tested on: SMMC-7721; experiment: Mitochondrial transmembrane potential assay (JC-1); assay type: cell-based; details: SMMC-7721, 30.0 μg/mL, 12 h
Description: as §4

[10] = tested on: HepG2; experiment: ROS assay (DCFH-DA); assay type: cell-based; details: HepG2, 30.0 μg/mL, 12 h
Description: (§5) The experimental procedure was similar to the part 4.2.8. Similarly, HepG2 and SMMC-7721 cell were seeded in a 12-well plate and incubated for 24 h. 30.0 μg/mL of TP 5-NPs or TP 5 was added and cultured for another 12 h. After that, 10 μM 2′, 7′-dichlorodihydrofluorescein diacetate (DCFH-DA, Sigma-Aldrich, Saint Louis, MO, USA) was added and incubated for 10.0 min in the dark. Inversed fluorescent microscope was applied to observe fluorescence images.

[11] = tested on: SMMC-7721; experiment: ROS assay (DCFH-DA); assay type: cell-based; details: SMMC-7721, 30.0 μg/mL, 12 h
Description: as §5

solubility ([3]; PBS containing 20.0% v/v ethanol, PBS pH 7.4 containing 20.0% v/v ethanol, read-out: Solubility in release (acceptor) medium): 88.2 µg/mL (≈ 250 µM)
solubility ([3]; aqueous buffer, thermodynamic from solid, PBS buffered solution (pH 7.4), 25 °C, read-out: Solubility): 27.6 µg/mL (≈ 78.5 µM)
solubility ([3]; deionized water, 25 °C, water, thermodynamic from solid, read-out: Solubility): 26.4 µg/mL (≈ 74.8 µM)
solubility ([3]; dichloromethane, 25 °C, organic solvent or mixture, thermodynamic from solid, read-out: Solubility): > 13000 µg/mL
solubility ([3]; ethanol, 25 °C, organic solvent or mixture, thermodynamic from solid, read-out: Solubility): 2480 µg/mL (≈ 7040 µM)
solubility ([3]; ethyl acetate, 25 °C, organic solvent or mixture, thermodynamic from solid, read-out: Solubility): > 6800 µg/mL
thermal stability of structure ([4]; temperature increased to 60 °C, HPLC): stable
drug released [5]: ~ 20%
SMILES: Cc1cc2c(s1)C1=NC(=O)OC1(c1ccc(Cl)c(Cl)c1)CC2 (centres unmarked) [TP 5]
antitumor activity compared with other TPs and paclitaxel ([1]; HepG2, 30.0 μg/mL, 24 h): higher activity than other TPs including paclitaxel
antitumor activity compared with other TPs and paclitaxel ([2]; SMMC-7721, 30.0 μg/mL, 24 h): higher activity than other TPs including paclitaxel
Detected Concentration ([4]; 25.0 °C): 201.18 µg/mL and 200.53 µg/mL and 199.88 µg/mL
Detected Concentration ([4]; 40.0 °C): 202.66 µg/mL and 200.05 µg/mL and 202.01 µg/mL
Detected Concentration ([4]; 60.0 °C): 202.28 µg/mL and 202.93 µg/mL and 201.19 µg/mL
cytotoxicity ([6]; HepG2, 10.0-50.0 μg/mL, 24, 48 and 72 h): dose and time-dependent cytotoxicity
concentration above which cells were completely killed ([6]; HepG2, MTT, 24, 48 and 72 h): exceeds 40.0 μg/mL
cytotoxicity ([7]; SMMC-7721, 10.0-50.0 μg/mL, 24, 48 and 72 h): dose and time-dependent cytotoxicity
concentration above which cells were completely killed ([7]; SMMC-7721, MTT, 24, 48 and 72 h): exceeds 40.0 μg/mL
JC-1 polymer/monomer (red/green) fluorescence ratio [8]: lower than those of controls
JC-1 polymer/monomer (red/green) fluorescence ratio [9]: lower than those of controls
levels of ROS [10]: higher than those of control cells
levels of ROS [11]: higher than those of control cells

IC50 ([1]; Homo sapiens, HepG2, 24 h): 35.9 µg/mL
IC50 ([2]; Homo sapiens, SMMC-7721, 24 h): 35.3 µg/mL
SMILES: CC(=O)O[C@H]1C(=O)[C@@]2(C)[C@H]([C@H](OC(=O)c3ccccc3)[C@]3(O)C[C@H](OC(=O)[C@H](O)[C@@H](NC(=O)c4ccccc4)c4ccccc4)C(C)=C1C3(C)C)[C@]1(OC(C)=O)CO[C@@H]1C[C@@H]2O [paclitaxel, reference compound]
